Eight compounds from PubChem BioAssay AID256 (DTP/NCI, 2004) can be followed below.

The subject of the assay is CD2F1 mice, L1210 leukemia ip, survival T/C. Kind of assay: NCI In Vivo Anticancer Drug Screen. Data for tumor model L1210 Leukemia (intraperitoneal) in CD2F1 (CDF1) mice. The note with it: higher = longer survival. Put shortly:
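Read-out first: treated-group measurement over vehicle-control measurement, expressed as a ratio. Animals bore a transplanted tumor line and were dosed with compound or vehicle.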

Inconclusive results and toxic doses are left out.

For the compound `CC(=O)N/N=C/C(C)(C)C(C)(C)/C=N/NC(C)=O`, the T/C is 103 % of control (endpoint: mean survival time, dose: 100.0 mg/kg/injection, schedule: Q04DX002 (ip), vehicle: saline with Tween-80) and 122 % of control (endpoint: mean survival time, dose: 200.0 mg/kg/injection, schedule: Q04DX002 (ip), vehicle: saline with Tween-80).

`O=C(OCC1OC(n2cnc3c(=O)[nH][nH]c(=O)c32)C(OC(=O)c2ccccc2)C1OC(=O)c1ccccc1)c1ccccc1` (centres undefined): the T/C by setting is: (endpoint: median survival time, dose: 8.25 mg/kg/injection, schedule: Q01DX005 (ip), vehicle: Klucel (hydroxypropylcellulose) (HPC)) 104 % of control; (endpoint: median survival time, dose: 16.5 mg/kg/injection, schedule: Q01DX005 (ip), vehicle: Klucel (hydroxypropylcellulose) (HPC)) 98 % of control; (endpoint: median survival time, dose: 33.0 mg/kg/injection, schedule: Q01DX005 (ip), vehicle: Klucel (hydroxypropylcellulose) (HPC)) 97 % of control; (endpoint: median survival time, dose: 66.0 mg/kg/injection, schedule: Q01DX005 (ip), vehicle: Klucel (hydroxypropylcellulose) (HPC)) 101 % of control; (endpoint: median survival time, dose: 132.0 mg/kg/injection, schedule: Q01DX005 (ip), vehicle: Klucel (hydroxypropylcellulose) (HPC)) 102 % of control.

Turning to `Cn1c(=O)c2c(ncn2CCSS(=O)(=O)O)n(C)c1=O`, the T/C runs as follows: (endpoint: mean survival time, dose: 12.5 mg/kg/injection, schedule: Q01DX005 (ip), vehicle: water) 100 % of control; (endpoint: mean survival time, dose: 25.0 mg/kg/injection, schedule: Q01DX005 (ip), vehicle: water) 94 % of control; (endpoint: mean survival time, dose: 50.0 mg/kg/injection, schedule: Q01DX005 (ip), vehicle: water) 102 % of control; (endpoint: mean survival time, dose: 100.0 mg/kg/injection, schedule: Q01DX005 (ip), vehicle: water) 100 % of control; (endpoint: mean survival time, dose: 200.0 mg/kg/injection, schedule: Q01DX005 (ip), vehicle: water) 98 % of control.

As to `[CH-]=C([CH2-])C.[Ni][Br].c1ccc([PH+](c2ccccc2)c2ccccc2)cc1`, the T/C runs as follows: (endpoint: mean survival time, dose: 25.0 mg/kg/injection, schedule: Q01DX001 (ip), vehicle: saline with Tween-80) 101 % of control; (endpoint: mean survival time, dose: 50.0 mg/kg/injection, schedule: Q01DX001 (ip), vehicle: saline with Tween-80) 101 % of control; (endpoint: mean survival time, dose: 100.0 mg/kg/injection, schedule: Q01DX001 (ip), vehicle: saline with Tween-80) 108 % of control.

For the compound `CC(O)(C(=O)O)c1ccccc1` (centres undefined), the T/C is, setting by setting: (endpoint: mean survival time, dose: 75.0 mg/kg/injection, schedule: Q01DX001 (ip), vehicle: saline) 102 % of control; (endpoint: mean survival time, dose: 150.0 mg/kg/injection, schedule: Q01DX001 (ip), vehicle: saline) 112 % of control; (endpoint: mean survival time, dose: 300.0 mg/kg/injection, schedule: Q01DX001 (ip), vehicle: saline) 100 % of control.

Regarding `Clc1cc(N2CC2)nc(N2CC2)n1`, the T/C was 122 % of control (endpoint: mean survival time, dose: 0.94 mg/kg/injection, schedule: Q01DX009 (ip), vehicle: saline); 150 % of control (endpoint: mean survival time, dose: 1.41 mg/kg/injection, schedule: Q01DX009 (ip), vehicle: saline); 120 % of control (endpoint: mean survival time, dose: 1.6 mg/kg/injection, schedule: Q01DX009 (ip), vehicle: saline); 168 % of control (endpoint: mean survival time, dose: 4.5 mg/kg/injection, schedule: Q01DX009 (ip), vehicle: saline); 89 % of control (endpoint: mean survival time, dose: 7.5 mg/kg/injection, schedule: Q01DX009 (ip), vehicle: saline).

Turning to `COc1ccc(NC(=O)Oc2cc(=O)oc3ccccc23)c(Cl)c1`, the T/C is 107 % of control (endpoint: mean survival time, dose: 50.0 mg/kg/injection, schedule: Q01DX009 (ip), vehicle: Klucel (hydroxypropylcellulose) (HPC)); 96 % of control (endpoint: mean survival time, dose: 100.0 mg/kg/injection, schedule: Q01DX009 (ip), vehicle: Klucel (hydroxypropylcellulose) (HPC)); 100 % of control (endpoint: mean survival time, dose: 200.0 mg/kg/injection, schedule: Q01DX009 (ip), vehicle: Klucel (hydroxypropylcellulose) (HPC)).

`O=C(CCl)N1CCc2ccccc21`: the T/C runs as follows: (endpoint: mean survival time, dose: 100.0 mg/kg/injection, schedule: Q04DX003 (ip), vehicle: Klucel (hydroxypropylcellulose) (HPC)) 98 % of control; (endpoint: mean survival time, dose: 200.0 mg/kg/injection, schedule: Q04DX003 (ip), vehicle: Klucel (hydroxypropylcellulose) (HPC)) 103 % of control; (endpoint: mean survival time, dose: 400.0 mg/kg/injection, schedule: Q04DX003 (ip), vehicle: Klucel (hydroxypropylcellulose) (HPC)) 97 % of control.
